Data published in patent US10604554B2, “Double-acylated GLP-1 derivatives” (Novo Nordisk A/S, priority 2012, dated 2020).
Where two headings read alike, the source gives them in different places.

Experiments:
[1] = target: T1, human GLP-1 receptor (Homo sapiens, UniProt P43220); assay: In vitro potency (CRE luciferase; whole cells); format: cell-based; conditions: BHK cells
T1 construct: expressed in transfected cells; host or cells: BHK cells, clone FCW467-12A/KZ10-1 (parent line BHKTS13), further transfected with CRE luciferase
Procedure, shortened: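 Stably transfected BHK cells carrying human GLP-1R and a CRE–firefly luciferase reporter, 5×10^3 cells/well in assay medium, run with 0% or 1% HSA in assay buffer.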

[2] = target: T1, human GLP-1 receptor; assay: GLP-1 receptor binding (SPA, displacement of 125I-GLP-1)
Procedure, shortened: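 Membranes from a stably transfected hamster cell line, 5-10 ug protein/sample, with WGA SPA beads and [125I]-GLP-1(7-36)NH2 at 0.06 nM final. Incubated 120 min at 30 °C with shaking, then counted.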

[3] = in vivo; conditions: male, Göttingen, minipig, iv
[4] = in vivo; conditions: male, Sprague Dawley, rat, iv

T1 sequence (P43220 24-463): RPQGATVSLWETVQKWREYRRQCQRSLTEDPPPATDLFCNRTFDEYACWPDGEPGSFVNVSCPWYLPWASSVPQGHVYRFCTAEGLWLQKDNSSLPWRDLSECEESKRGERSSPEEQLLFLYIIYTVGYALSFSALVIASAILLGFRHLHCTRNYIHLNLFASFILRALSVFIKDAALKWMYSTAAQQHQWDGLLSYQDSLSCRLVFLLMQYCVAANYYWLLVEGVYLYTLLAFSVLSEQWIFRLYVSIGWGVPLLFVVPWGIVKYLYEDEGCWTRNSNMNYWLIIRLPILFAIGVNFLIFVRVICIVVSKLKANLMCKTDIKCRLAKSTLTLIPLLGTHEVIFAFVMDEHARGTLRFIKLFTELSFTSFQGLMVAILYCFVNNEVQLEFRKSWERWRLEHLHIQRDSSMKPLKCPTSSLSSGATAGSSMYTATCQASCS

EC50 ([1]; 0% HSA, read-out: In vitro potency (CRE luciferase) EC50 (0% HSA)): 0.0073 nM | EC50 ([1]; In vitro potency (CRE luciferase) EC50 (1% HSA), 1% HSA): 1.57 nM | IC50 ([2]; 0.001% HSA (low albumin), read-out: Receptor binding affinity IC50 (low HSA)): 0.74 nM | IC50 (high HSA) ([2]; Receptor binding affinity IC50 (high HSA), 2.0% HSA (high albumin), heading: Receptor binding affinity IC50): 522 nM | half-life [3]: 95 h | half-life [4]: 28 h
SMILES: CC[C@H](C)[C@H](NC(=O)[C@H](Cc1ccccc1)NC(=O)[C@H](CCC(=O)O)NC(=O)[C@H](CCCCNC(=O)[C@@H](N)CCCCNC(=O)COCCOCCNC(=O)CC[C@H](NC(=O)CC[C@H](NC(=O)CCCCCCCCCCCCCCC(=O)O)C(=O)O)C(=O)O)NC(=O)[C@H](C)NC(=O)[C@H](C)NC(=O)[C@H](CCC(N)=O)NC(=O)CNC(=O)[C@H](CCC(=O)O)NC(=O)[C@H](CC(C)C)NC(=O)[C@H](Cc1ccc(O)cc1)NC(=O)[C@H](CO)NC(=O)[C@H](CO)NC(=O)[C@@H](NC(=O)[C@H](CC(=O)O)NC(=O)[C@H](CO)NC(=O)[C@@H](NC(=O)[C@H](Cc1ccccc1)NC(=O)[C@@H](NC(=O)CNC(=O)[C@H](CCC(=O)O)NC(=O)C(C)(C)NC(=O)[C@@H](N)Cc1c[nH]cn1)[C@@H](C)O)[C@@H](C)O)C(C)C)C(=O)N[C@@H](C)C(=O)N[C@@H](Cc1c[nH]c2ccccc12)C(=O)N[C@@H](CC(C)C)C(=O)N[C@H](C(=O)N[C@@H](CCCNC(=N)N)C(=O)NCC(=O)N[C@@H](CCCNC(=N)N)C(=O)N[C@@H](CCCCNC(=O)[C@@H](N)CCCCNC(=O)COCCOCCNC(=O)CC[C@H](NC(=O)CC[C@H](NC(=O)CCCCCCCCCCCCCCC(=O)O)C(=O)O)C(=O)O)C(=O)O)C(C)C [Example 11, N^ε26-[(2S)-2-amino-6-[[2-[2-[2-[[(4S)-4-carboxy-4-[[(4S)-4-carboxy-4-(15-carboxypentadecanoylamino)butanoyl]amino]butanoyl]amino]ethoxy]ethoxy]acetyl]amino]hexanoyl], N^ε37-[(2S)-2-amino-6-[[2-[2-[2-[[(4S)-4-carboxy-4-[[(4S)-4-carboxy-4-(15-carboxypentadecanoylamino)butanoyl]amino]butanoyl]amino]ethoxy]ethoxy]acetyl]amino]hexanoyl]-[Aib^8,Arg^34, Lys^37]-GLP-1-(7-37)-peptide]
